Residue numbers refer to the chain shown, from its start.
Columns and labels:
[1] = target: T1, IDH2 R172K (Homo sapiens, UniProt P48735, R172K); assay: IDH2 R172K enzymatic assay (NADPH cofactor depletion, diaphorase/resazurin readout); type: biochemical; details: read-out: Enz R172K
T1 sequence (P48735 40-452 R172K): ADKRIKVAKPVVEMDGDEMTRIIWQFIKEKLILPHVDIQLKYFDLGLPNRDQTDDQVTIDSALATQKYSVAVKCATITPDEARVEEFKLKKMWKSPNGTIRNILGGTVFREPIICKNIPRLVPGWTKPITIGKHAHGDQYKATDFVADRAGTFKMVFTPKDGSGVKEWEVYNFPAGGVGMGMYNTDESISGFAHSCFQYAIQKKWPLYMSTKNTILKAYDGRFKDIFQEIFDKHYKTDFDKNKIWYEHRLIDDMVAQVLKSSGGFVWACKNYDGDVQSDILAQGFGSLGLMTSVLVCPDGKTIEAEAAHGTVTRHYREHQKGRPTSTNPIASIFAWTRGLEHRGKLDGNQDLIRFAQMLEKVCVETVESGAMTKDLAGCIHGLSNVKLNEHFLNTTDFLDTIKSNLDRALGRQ
In short: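 Residual NADPH is read out as resorufin fluorescence after quenching with 36 μg/ml diaphorase and 60 μM resazurin in stop mix. The stop follows a 1 h room-temperature reaction started by a substrate mix of NADPH (50 μM) and α-KG (6.3 mM), with compound preincubated with enzyme for 1 h beforehand.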

[2] = test system: U87MG pLVX-IDH2 R140Q-neo cells; assay: U87MG pLVX-IDH2 R140Q-neo cell based assay, 2-HG in media by LC-MS at 48 hours; details: Homo sapiens, U-87 MG
In short: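 2-HG secreted into the medium was measured by LC-MS after 48 h of compound treatment (0.2% DMSO final) of U87MG pLVX-IDH2 R140Q-neo cells in DMEM/10% FBS. The same wells were assayed at 72 h by CellTiter-Glo luminescence for effects on growth.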

[3] = target: T2, IDH2 R140Q (Homo sapiens, UniProt P48735, R140Q); assay: IDH2 R140Q enzymatic assay (cofactor depletion, similar format); type: biochemical; details: read-out: Enz R140Q
T2 sequence (P48735 40-452 R140Q): T1 sequence (P48735 40-452 R172K) with R101Q, K133R

Row | IC50 [1] | IC50 [2] | IC50 [3] | Compound
1 | 100 to 1000 nM | 100 to 1000 nM | 100 to 1000 nM | CC(C)Nc1nc(Nc2ccc(F)nc2)nc(-c2cccc(N)n2)n1 [Compound 462, 6-(6-Amino-pyridin-2-yl)-N-(6-fluoro-pyridin-3-yl)-N′-isopropyl-[1,3,5]triazine-2,4-diamine]
2 | < 100 nM | < 100 nM | 100 to 1000 nM | CC#Cc1cccc(-c2nc(Nc3cc(F)cc(F)c3)nc(NC(C)C)n2)n1 [Compound 463, N-(3,5-Difluoro-phenyl)-N′-isopropyl-6-(6-prop-1-ynyl-pyridin-2-yl)-[1,3,5]triazine-2,4-diamine]
3 | < 100 nM | < 100 nM | 100 to 1000 nM | CNc1cccc(-c2nc(Nc3cc(F)cc(F)c3)nc(NC(C)C)n2)n1 [Compound 465]
4 | 100 to 1000 nM | < 100 nM | 100 to 1000 nM | CC(C)Nc1nc(Nc2cccc(S(C)(=O)=O)c2)nc(-c2c(F)cccc2F)n1 [Compound 466, 6-(2,6-difluorophenyl)-N2-isopropyl-N4-(3-(methylsulfonyl)phenyl)-1,3,5-triazine-2,4-diamine]
5 | 100 to 1000 nM | 100 to 1000 nM | 100 to 1000 nM | CC#Cc1cccc(-c2nc(Nc3cccc(F)c3)nc(NC(C)C)n2)n1 [Compound 467, N-(3-Fluoro-phenyl)-N′-isopropyl-6-(6-prop-1-ynyl-pyridin-2-yl)-[1,3,5]triazine-2,4-diamine]
6 | < 100 nM | < 100 nM | 100 to 1000 nM | CC(C)Nc1nc(Nc2cncc(C(F)(F)F)c2)nc(-c2cccc(N)n2)n1 [Compound 468, 6-(6-Amino-pyridin-2-yl)-N-isopropyl-N′-(5-trifluoromethyl-pyridin-3-yl)-[1,3,5]triazine-2,4-diamine]
7 | < 100 nM | < 100 nM | < 100 nM | CC(C)Nc1nc(Nc2cc(F)cc(F)c2)nc(-c2nc(O)ccc2F)n1 [Compound 469, 6-[4-(3,5-Difluoro-phenylamino)-6-isopropylamino-[1,3,5]triazin-2-yl]-5-fluoro-pyridin-2-ol]
8 | 100 to 1000 nM | < 100 nM | 100 to 1000 nM | CC(C)Nc1nc(Nc2cncc(F)c2)nc(-c2cccc(N)n2)n1 [Compound 470, 6-(6-Amino-pyridin-2-yl)-N-(5-fluoro-pyridin-3-yl)-N′-isopropyl-[1,3,5]triazine-2,4-diamine]
9 | 100 to 1000 nM | < 100 nM | 100 to 1000 nM | Cc1nc(-c2nc(Nc3cccc(F)c3)nc(NC(C)C)n2)co1 [Compound 471, N-(3-Fluoro-phenyl)-N′-isopropyl-6-(2-methyl-oxazol-4-yl)-[1,3,5]triazine-2,4-diamine]
10 | 100 to 1000 nM | < 100 nM | < 100 nM | Cc1cc(-c2nc(Nc3cccc(F)c3)nc(NC(C)C)n2)no1 [Compound 472, N-(3-Fluoro-phenyl)-N′-isopropyl-6-(5-methyl-isoxazol-3-yl)-[1,3,5]triazine-2,4-diamine]
11 | < 100 nM | < 100 nM | < 100 nM | CC(C)Nc1nc(Nc2cccc(F)c2)nc(-c2c(F)cccc2F)n1 [Compound 473, 6-(2,6-Difluoro-phenyl)-N-(3-fluoro-phenyl)-N′-isopropyl-[1,3,5]triazine-2,4-diamine]
12 | < 100 nM | < 100 nM | 100 to 1000 nM | CC(C)Nc1nc(Nc2cncc(F)c2)nc(-c2c(F)cccc2F)n1 [Compound 474, 6-(2,6-Difluoro-phenyl)-N-(5-fluoro-pyridin-3-yl)-N′-isopropyl-[1,3,5]triazine-2,4-diamine]
13 | < 100 nM | < 100 nM | < 100 nM | CC(C)Nc1nc(Nc2cccc(F)c2)nc(-c2nc(C(F)(F)F)cs2)n1 [Compound 475, N-(3-Fluoro-phenyl)-N′-isopropyl-6-(4-trifluoromethyl-thiazol-2-yl)-[1,3,5]triazine-2,4-diamine]
14 | 100 to 1000 nM | < 100 nM | < 100 nM | Cc1nc(-c2nc(Nc3cc(F)cc(F)c3)nc(NC(C)C)n2)co1 [Compound 476, N-(3,5-Difluoro-phenyl)-N′-isopropyl-6-(2-methyl-oxazol-4-yl)-[1,3,5]triazine-2,4-diamine]
15 | < 100 nM | < 100 nM | 100 to 1000 nM | CC(C)Nc1nc(Nc2cc(F)cc(F)c2)nc(-c2nc(N)ccc2F)n1 [Compound 477, 6-(6-amino-3-fluoropyridin-2-yl)-N2-(3,5-difluorophenyl)-N4-isopropyl-1,3,5-triazine-2,4-diamine]
16 | < 100 nM | < 100 nM | 100 to 1000 nM | Nc1ccnc(-c2nc(NCC3CC3)nc(Nc3cc(F)cc(F)c3)n2)n1 [Compound 478, 6-(4-Amino-pyrimidin-2-yl)-N-cyclopropylmethyl-N′-(3,5-difluoro-phenyl)-[1,3,5]triazine-2,4-diamine]
17 | 100 to 1000 nM | < 100 nM | 100 to 1000 nM | CC(C)(C)Nc1nc(Nc2cc(F)cc(F)c2)nc(-c2nccc(N)n2)n1 [Compound 479, 6-(4-Amino-pyrimidin-2-yl)-N-tert-butyl-N′-(3,5-difluoro-phenyl)-[1,3,5]triazine-2,4-diamine]
18 | 100 to 1000 nM | < 100 nM | 100 to 1000 nM | Nc1ccnc(-c2nc(NCC(F)(F)F)nc(Nc3cc(F)cc(F)c3)n2)n1 [Compound 480, 6-(4-Amino-pyrimidin-2-yl)-N-(3,5-difluoro-phenyl)-N′-(2,2,2-trifluoro-ethyl)-[1,3,5]triazine-2,4-diamine]
19 | < 100 nM | < 100 nM | 100 to 1000 nM | CC(C)Nc1nc(Nc2cc(F)cc(F)c2)nc(-c2nc(N)cc(C(F)(F)F)n2)n1 [Compound 481, 6-(4-amino-6-(trifluoromethyl)pyrimidin-2-yl)-N2-(3,5-difluorophenyl)-N4-isopropyl-1,3,5-triazine-2,4-diamine]
20 | < 100 nM | < 100 nM | 100 to 1000 nM | CC(C)Nc1nc(Nc2cc(F)cc(F)c2)nc(-c2ccnc(N)n2)n1 [Compound 482, 6-(2-Amino-pyrimidin-4-yl)-N-(3,5-difluoro-phenyl)-N′-isopropyl-[1,3,5]triazine-2,4-diamine]
21 | 1000 to 10000 nM | 100 to 1000 nM | 100 to 1000 nM | CC(C)Nc1nc(Nc2cccc(S(C)(=O)=O)c2)nc(-c2cc(Cl)cc(Cl)n2)n1 [Compound 483, 6-(4,6-dichloropyridin-2-yl)-N2-isopropyl-N4-(3-(methylsulfonyl)phenyl)-1,3,5-triazine-2,4-diamine]
22 | 100 to 1000 nM | < 100 nM | 100 to 1000 nM | CC(C)Nc1nc(Nc2cccc(S(C)(=O)=O)c2)nc(-c2nc(C(F)(F)F)ccc2F)n1 [Compound 484, 6-(3-fluoro-6-(trifluoromethyl)pyridin-2-yl)-N2-isopropyl-N4-(3-(methylsulfonyl)phenyl)-1,3,5-triazine-2,4-diamine]
23 | 100 to 1000 nM | < 100 nM | 100 to 1000 nM | CC(C)Nc1nc(Nc2cc(F)cc(F)c2)nc(-c2cc(Cl)cc(N)n2)n1 [Compound 485, 6-(6-amino-4-chloropyridin-2-yl)-N^2-(3,5-difluorophenyl)-N^4-isopropyl-1,3,5-triazine-2,4-diamine]
24 | < 100 nM | < 100 nM | 100 to 1000 nM | Nc1cccc(-c2nc(NCC(F)(F)F)nc(Nc3cc(F)cc(F)c3)n2)n1 [Compound 491, 6-(6-aminopyridin-2-yl)-N2-(3,5-difluorophenyl)-N4-(2,2,2-trifluoroethyl)-1,3,5-triazine-2,4-diamine]
25 | < 100 nM | < 100 nM | 100 to 1000 nM | CC(C)Nc1nc(Nc2cccc(F)c2)nc(-c2cccc(N)n2)n1 [Compound 492, 6-(6-aminopyridin-2-yl)-N2-(3-fluorophenyl)-N4-isopropyl-1,3,5-triazine-2,4-diamine]
26 | < 100 nM | < 100 nM | 100 to 1000 nM | CC(C)(CO)CNc1nc(Nc2ccnc(C(F)(F)F)c2)nc(-c2cccc(Cl)n2)n1 [Compound 495, 3-[4-(6-Chloro-pyridin-2-yl)-6-(2-trifluoromethyl-pyridin-4-ylamino)-[1,3,5]triazin-2-ylamino]-2,2-dimethyl-propan-1-ol]
27 | < 100 nM | < 100 nM | 100 to 1000 nM | CC(C)Nc1nc(Nc2ccnc(C(C)(C)O)c2)nc(-c2cccc(C(F)(F)F)n2)n1 [Compound 496, 2-{4-[4-Isopropylamino-6-(6-trifluoromethyl-pyridin-2-yl)-[1,3,5]triazin-2-ylamino]-pyridin-2-yl}-propan-2-ol]

From US9512107B2, “Therapeutically active compositions and their methods of use” (Agios Pharmaceuticals, Inc., priority 2012, dated 2016)
